Test results reported in paper PMC11714206, “Massively Parallel Screening of Toll/Interleukin‐1 Receptor (TIR)‐Derived Peptides Reveals Multiple Toll‐Like Receptors (TLRs)‐Targeting Immunomodulatory Peptides” (Advanced Science, 2024).
Each block holds one substance with its values, some of them ahead of it.

Target: T1, MAL^TIR (Homo sapiens, UniProt P58753)
T1 construct: MAL (residues 79–221); 6xHis; made in house; host or cells: E. coli BL21 (DE3)
Assay: T‐Surf phage library (P8 and P3) selection against MAL^TIR, four rounds, NGS read counts
Format: binding
Conditions: for Population: P3_MAL pool: P3 T-Surf phage library, 4th round of selection against MAL TIR, share of NGS reads; for Rank (after): P3_MAL: rank by count after grouping; for Rank (before): P3_MAL: rank by count before grouping; for P3_MAL Rank (after) / P3_MAL Rank (before): P3 library
Procedure, shortened: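 Four panning rounds on TIR domain adsorbed at 5 µg mL^−1; binding 1 h at 20–22 °C, elution with 100 mM HCl. Output: NGS read counts of round‐4 pools versus naïve library.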

[1] = selection against MAL, rank after grouping
[2] = selection against MAL, rank before grouping
[3] = selection against MAL TIR, rank by count after grouping
[4] = selection against MAL TIR, rank by count before grouping
[5] = selection against MAL, rank by count after grouping
[6] = selection against MAL, rank by count before grouping
[7] = 4R selection against MAL, rank after grouping
[8] = 4R selection against MAL, rank before grouping

T1 sequence (P58753 79-221): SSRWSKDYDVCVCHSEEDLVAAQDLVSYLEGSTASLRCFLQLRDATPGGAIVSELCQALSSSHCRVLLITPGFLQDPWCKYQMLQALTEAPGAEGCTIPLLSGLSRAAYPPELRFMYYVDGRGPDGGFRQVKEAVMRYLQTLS

Population: 0.00338%
Substance: YAFTGHLHRYLVQCGV

Population: 0.00451% | Rank (after): 104 | Rank (before): 149
Substance: YAFTGHLHRYLVQRAL

Population: 0.00338%
Substance: YAFTGHLHRYLVQRGI

Population: 0.00376%
Substance: YAFTGHLHRYLVQRGL

P3_MAL Rank (after) [1]: 561 | P3_MAL Rank (before) [2]: 1392
Substance: YAFTGHLHRYLVRRSA

P3_MAL Rank (after) [3]: 199 | P3_MAL Rank (before) [4]: 1440
Substance: YAFTGHLNRSLVQRGV

Rank (after): 188 | Rank (before): 1460
Substance: YAFTGHLQRYLLQRGV

Rank (after): 439 | Rank (before): 1372
Substance: YAFTGHLRRYLLRRSV

Population: 0.00338%
Substance: YAFTGHLRRYLVQRGV

P3_MAL Rank (after) [1]: 517 | P3_MAL Rank (before) [2]: 1370
Substance: YAFTGHLRRYMVQRGV

Population: 0.00564%
Substance: YAFTGHPHRYLVQRGV

Rank (after): 420 | Rank (before): 1447
Substance: YAFTGHQHNYMVQRGV

P3_MAL Rank (after) [3]: 285 | P3_MAL Rank (before) [4]: 1360
Substance: YAFTGHVDRYLVQRGV

P3_MAL Rank (after) [3]: 229 | P3_MAL Rank (before) [4]: 1362
Substance: YAFTGHVHRYMVQRGV

Rank (after): 445 | Rank (before): 1356
Substance: YAFTGYLHRYLVQRGG

P3_MAL Rank (after) [1]: 553 | P3_MAL Rank (before) [2]: 1465
Substance: YAFTRHLHRYLVQRAA

P3_MAL Rank (after) [1]: 554 | P3_MAL Rank (before) [2]: 1469
Substance: YAFTSHLYDRLPAPQH

P3_MAL Rank (after) [7]: 606 | P3_MAL Rank (before) [8]: 1470
Substance: YAFTSHLYDRLQRSGI

P3_MAL Rank (after) [7]: 592 | P3_MAL Rank (before) [8]: 1481
Substance: YAFTSSLHRYLVQRGV

Rank (after): 138 | Rank (before): 516
Substance: YALPAICIVIWCSVA

Further lines, the substance ahead of its results:

Substance: YAFTGHLHRYLMRTKT
Population: 0.00338% | Rank (after): 114 | Rank (before): 186

Substance: YAFTGHLHRYLQAKDH
P3_MAL Rank (after) [1]: 496 | P3_MAL Rank (before) [2]: 1419

Substance: YAFTGHLHRYLV*RGV
Population: 0.00564%

Substance: YAFTGHLHRYLVQLGV
Population: 0.00676%

Substance: YAFTGHLHRYLVQPGG
P3_MAL Rank (after) [3]: 249 | P3_MAL Rank (before) [4]: 1409

Substance: YAFTGHLHRYLVQRA
Rank (after): 137 | Rank (before): 398

Substance: YAFTGHLHRYLVQRDM
Rank (after): 391 | Rank (before): 1403

Substance: YAFTGHLHRYLVQRFA
P3_MAL Rank (after) [1]: 514 | P3_MAL Rank (before) [2]: 1393

Substance: YAFTGHLHRYLVQRGA
Population: 0.00338%

Substance: YAFTGHLHRYLVQRGEP
Rank (after): 443 | Rank (before): 1397

Substance: YAFTGHLHRYLVQRGVHGGD
P3_MAL Rank (after) [1]: 560 | P3_MAL Rank (before) [2]: 1396

Substance: YAFTGHLHRYLVQRKQI
P3_MAL Rank (after) [5]: 752 | P3_MAL Rank (before) [6]: 1404

Substance: YAFTGHLHRYLVQRRS
P3_MAL Rank (after) [5]: 704 | P3_MAL Rank (before) [6]: 1408

Substance: YAFTGHLHRYLVQRSGI
P3_MAL Rank (after) [3]: 203 | P3_MAL Rank (before) [4]: 733

Substance: YAFTGHLHRYLVRRGV
Population: 0.00338%

Substance: YAFTGHLHSYLVQRGV
Population: 0.00338%

Substance: YAFTGHLPRYLVQRGG
Rank (after): 425 | Rank (before): 1373

Substance: YAFTGHLQRYLVQRGE
P3_MAL Rank (after) [5]: 719 | P3_MAL Rank (before) [6]: 1435

Substance: YAFTGHLRHHLQAKDH
Rank (after): 120 | Rank (before): 394

Substance: YAFTGHLRRYLVLRGV
P3_MAL Rank (after) [1]: 509 | P3_MAL Rank (before) [2]: 1369

Substance: YAFTGHLTGYLVQRGV
P3_MAL Rank (after) [3]: 220 | P3_MAL Rank (before) [4]: 1438

Substance: YAFTGHPHRSLVQRGV
P3_MAL Rank (after) [3]: 271 | P3_MAL Rank (before) [4]: 1446

Substance: YAFTGHRHRYLVKRGV
Rank (after): 179 | Rank (before): 1445

Substance: YAFTGHVPGYLVQRGV
P3_MAL Rank (after) [5]: 757 | P3_MAL Rank (before) [6]: 1361

Substance: YAFTGPPHRYMVQRGV
Rank (after): 460 | Rank (before): 1354

Substance: YAFTGYLHRYLVQRGV
Population: 0.00827%

Substance: YAFTGYLHRYVVQRGV
P3_MAL Rank (after) [1]: 519 | P3_MAL Rank (before) [2]: 1355

Substance: YAFTRHLHRYLVHRGV
P3_MAL Rank (after) [5]: 714 | P3_MAL Rank (before) [6]: 1466

Substance: YAFTRHLHRYLVQSGV
Rank (after): 147 | Rank (before): 1468

Substance: YAFTSHLHHALRLNKIETF
P3_MAL Rank (after) [5]: 711 | P3_MAL Rank (before) [6]: 1475

Substance: YAFTSHLHRSLVQRGV
P3_MAL Rank (after) [3]: 257 | P3_MAL Rank (before) [4]: 1473

Substance: YAFTSHLHRYLVQRGV
Population: 0.00827%

Substance: YAFTSHLSRYLVQRGV
P3_MAL Rank (after) [3]: 223 | P3_MAL Rank (before) [4]: 1476

Substance: YALTGQLHRYLVQRGV
Rank (after): 151 | Rank (before): 1485
